Measured values reported in patent US11046686B2, “Thiadiazole IRAK4 compounds” (Gilead Sciences, Inc., priority 2018, dated 2021).
Where two headings read alike, the source gives them in different places.

Assays:
IRAK4 enzyme = IRAK4 enzyme (Homo sapiens (Human), UniProt Q9NWZ3); assay: IRAK4 Biochemical Assay (TR-FRET, STK1 KinEASE)
Description: IRAK4 enzyme (Carna Biosciences, Chuo-ku, Kobe, Japan) activity was measured by detecting phosphorylated peptide substrate formation using an antibody against the phosphorylated peptide substrate. This is a time-resolved fluorescence resonance energy transfer (TR-FRET) immunoassay, based on the STK1 KinEASE Assay (Cisbio, Bedford, Mass.). The assay was designed as a simple two-step, endpoint assay (a 5 μl enzyme reaction followed by 5 μl stop and detect Solution) performed in ProxiPlate-384 Plus plates (Perkin Elmer, Waltham, Mass.). […] Compounds diluted in DMSO were spotted into 384 well plates using a Labcyte® Echo 550 Liquid Handling System prior to addition of IRAK4 enzyme and peptide substrate. Reaction solutions were delivered using a Multi-Flo (Bio-Tek Instruments). The enzyme and peptide solution was incubated with compound for 15 minutes at room temp before the reaction was initiated by the addition of ATP. The standard 5 μl reaction mixture contained 500 μM ATP, […] peptide (STK1 Peptide), 0.75 nM of IRAK4 in reaction buffer (50 mM HEPES, pH 7.0, 0.02% NaN3, 0.01% BSA, 0.1 mM Orthovanadate, 5 mM […], 0.025% NP-40, 1 mM DTT). After 120 min of incubation at room temperature, 5 μl of Stop and Detect Solution (1:100 Cryptate labeled anti-phosphorylated peptide antibody solution and 125 nM Tracer in a 50 mM HEPES pH 7.0 detection buffer containing sufficient EDTA) was added. The plate was then further incubated for 60 minutes at room temperature and read on Envision 2103 Multilabeled reader (PerkinElmer) with excitation/emission/FRET emission at 340 nm/615 nm665 nm, respectively. Fluorescence intensities at 615 nm and 665 nm emission wavelengths were expressed as aratio (665 nm/615 nm). Percentage of inhibition was calculated as below: % Inhibition=100×(Ratiosample−Ratio0% Inhibition)/(Ratio100% Inhibition−Ratio0% Inhibition)
The 0% inhibition value comes from control wells lacking inhibitor.

TNFα = assay: IRAK4 Monocyte TNFα Cell Based Assay; set-up: species or system human
Procedure, shortened: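 TNFα release quantified by HTRF (cryptate/XL665 antibody pair, overnight at RT) after 1 h compound pre-incubation (0.1% DMSO) and 4 h LPS challenge at 50 pg/ml, 37 °C, 5,000 monocytes per well. Signal ratio normalised between unstimulated (0%) and stimulated (100%) controls.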

[1] = human monocytes, second part of Table 2, compounds 33-343, unit inferred, read-out: EC50 MONO TNF HTRF

Chain of IRAK4 enzyme (Q9NWZ3 whole entry): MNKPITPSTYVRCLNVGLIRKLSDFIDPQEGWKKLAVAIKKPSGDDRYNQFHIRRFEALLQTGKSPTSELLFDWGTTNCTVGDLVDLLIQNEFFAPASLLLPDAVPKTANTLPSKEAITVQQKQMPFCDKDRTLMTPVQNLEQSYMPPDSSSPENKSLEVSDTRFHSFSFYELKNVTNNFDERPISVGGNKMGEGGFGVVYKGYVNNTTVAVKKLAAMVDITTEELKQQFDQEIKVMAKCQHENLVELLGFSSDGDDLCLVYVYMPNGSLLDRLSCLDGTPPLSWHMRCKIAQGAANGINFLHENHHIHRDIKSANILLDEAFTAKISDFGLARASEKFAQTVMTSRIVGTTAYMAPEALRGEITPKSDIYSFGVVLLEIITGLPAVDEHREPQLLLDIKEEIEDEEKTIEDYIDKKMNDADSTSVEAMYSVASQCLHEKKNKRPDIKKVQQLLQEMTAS

Structure (SMILES)	EC50 (TNFα; [1]) [nM]	further results
CC(C)Nc1cc(-c2ccc3cc(C#N)cnn23)ncc1-c1nnc(C(=O)N2CCC[C@H]2CN)s1 [Example 229, (S)-7-(5-(5-(2-(aminomethyl)pyrrolidine-1-carbonyl)-1,3,4-thiadiazol-2-yl)-4-(isopropylamino)pyridin-2-yl)pyrrolo[1,2-b]pyridazine-3-carbonitrile]		IC50 (IRAK4 enzyme): 0.64 nM
CC(C)Nc1cc(-c2ccc3cc(C#N)cnn23)ncc1-c1nnc(C2CCNCC2)s1 [Example 129, 7-(4-(isopropylamino)-5-(5-(piperidin-4-yl)-1,3,4-thiadiazol-2-yl)pyridin-2-yl)pyrrolo[1,2-b]pyridazine-3-carbonitrile]		IC50 (IRAK4 enzyme): 0.59 nM
CC(C)Nc1cc(-c2ccc3cc(C#N)cnn23)ncc1-c1nnc(N2C[C@H]3CC[C@@H](C2)[C@@H]3NC(=O)[C@@H](C)O)s1 [Example 90, (R)—N-((1R,5S,8s)-3-(5-(6-(3-cyanopyrrolo[1,2-b]pyridazin-7-yl)-4-(isopropylamino)pyridin-3-yl)-1,3,4-thiadiazol-2-yl)-3-azabicyclo[3.2.1]octan-8-yl)-2-hydroxypropanamide]		IC50 (IRAK4 enzyme): 1.39 nM
CC(=O)N1CCN(C(=O)N[C@@H]2[C@@H]3CC[C@H]2CN(c2nnc(-c4cnc(-c5ccc6cc(C#N)cnn56)cc4NC(C)C)s2)C3)CC1 [Example 104, 4-acetyl-N-((1R,5S,8s)-3-(5-(6-(3-cyanopyrrolo[1,2-b]pyridazin-7-yl)-4-(isopropylamino)pyridin-3-yl)-1,3,4-thiadiazol-2-yl)-3-azabicyclo[3.2.1]octan-8-yl)piperazine-1-carboxamide]		IC50 (IRAK4 enzyme): 0.99 nM
CC(C)Nc1cc(-c2ccc3cc(C#N)cnn23)ncc1-c1nnc(C(=O)N2CCCC2)s1 [Example 9, 7-(4-(isopropylamino)-5-(5-(pyrrolidine-1-carbonyl)-1,3,4-thiadiazol-2-yl)pyridin-2-yl)pyrrolo[1,2-b]pyridazine-3-carbonitrile]		EC50 (TNFα; Homo sapiens, Monocyte, human monocytes, LPS stimulated, compounds 1-32, read-out: EC50 TNF): 2130 nM
CC(=O)N[C@H]1C[C@@H](c2nnc(-c3cnc(-c4ccc5cc(C#N)cnn45)cc3NC(C)C)s2)C1 [Compound 279, N-((1s,3s)-3-(5-(6-(3-cyanopyrrolo[1,2-b]pyridazin-7-yl)-4-(isopropylamino)pyridin-3-yl)-1,3,4-thiadiazol-2-yl)cyclobutyl)acetamide]	15.9	
CC(=O)N[C@@H]1CCN(c2nnc(-c3cnc(-c4ccc5cc(C#N)cnn45)cc3NC(C)C)s2)C1 [Compound 330]	47.1	
CC(C)Nc1cc(-c2ccc3cc(C#N)cnn23)ncc1-c1nnc(C2CCC(C#N)CC2)s1 (stereo not shown) [Compound 333]	1000	
CC1(Nc2cc(-c3ccc4cc(C#N)cnn34)ncc2-c2nnc(N3CC4CC(C3)N4C(=O)C(C)(C)O)s2)COC1 [Example 112, 7-(5-(5-(6-(2-hydroxy-2-methylpropanoyl)-3,6-diazabicyclo[3.1.1]heptan-3-yl)-1,3,4-thiadiazol-2-yl)-4-((3-methyloxetan-3-yl)amino)pyridin-2-yl)pyrrolo[1,2-b]pyridazine-3-carbonitrile]		EC50 (TNFα; Homo sapiens, Monocyte, read-out: EC50 MONO TNF HTRF): 13.1 nM
CC(C)Nc1cc(-c2ccc3cc(C#N)cnn23)ncc1-c1nnc(C(=O)N[C@H]2CC[C@H](O)CC2)s1 [Example 220, 5-(6-(3-cyanopyrrolo[1,2-b]pyridazin-7-yl)-4-(isopropylamino)pyridin-3-yl)-N-((1r,4r)-4-hydroxycyclohexyl)-1,3,4-thiadiazole-2-carboxamide]	131	
CC(C)Nc1cc(-c2ccc3cc(C#N)cnn23)ncc1-c1nnc([C@H]2CC[C@@H](NC(=O)C(C)(C)O)CC2)s1 [Example 312, N-((1s,4s)-4-(5-(6-(3-cyanopyrrolo[1,2-b]pyridazin-7-yl)-4-(isopropylamino)pyridin-3-yl)-1,3,4-thiadiazol-2-yl)cyclohexyl)-2-hydroxy-2-methylpropanamide]	17.5	
CC(C)Nc1cc(-c2ccc3cc(C#N)cnn23)ncc1-c1nnc(CC#N)s1 [Compound 321]	53.5	
CC(C)Nc1cc(-c2ccc3cc(C#N)cnn23)ncc1-c1nnc(N2CCC(O)(CF)CC2)s1 [Example 189]	16.3	
CC(C)Nc1cc(-c2ccc3cc(C#N)cnn23)ncc1-c1nnc([C@@H]2CC[C@H]2C(C)(C)O)s1 (racemic) [Example 88, 7-(5-(5-((1,2-trans)-2-(2-hydroxypropan-2-yl)cyclobutyl)-1,3,4-thiadiazol-2-yl)-4-(isopropylamino)pyridin-2-yl)pyrrolo[1,2-b]pyridazine-3-carbonitrile]		EC50 (TNFα; Homo sapiens, Monocyte, human monocytes, second part of Table 2, compounds 33-343, unit inferred, read-out: EC50 MONO TNF HTRF): 27.1 nM

More lines, main results first:

EC50 (TNFα; [1]) [nM]	Structure (SMILES)	further results
4.9	CC(=O)N[C@@H]1[C@@H]2CN(c3nnc(-c4cnc(-c5ccc6cc(C#N)cnn56)cc4NC(C)C)s3)C[C@@H]21 [Compound 239, N-((1R,5S,6r)-3-(5-(6-(3-cyanopyrrolo[1,2-b]pyridazin-7-yl)-4-(isopropylamino)pyridin-3-yl)-1,3,4-thiadiazol-2-yl)-3-azabicyclo[3.1.0]hexan-6-yl)acetamide]	
11.6	CC(=O)N[C@@H]1[C@@H]2C[C@H]1CN(c1nnc(-c3cnc(-c4ccc5cc(C#N)cnn45)cc3NC(C)C)s1)C2 [Example 173, N-((1R,5S,6s)-3-(5-(6-(3-cyanopyrrolo[1,2-b]pyridazin-7-yl)-4-(isopropylamino)pyridin-3-yl)-1,3,4-thiadiazol-2-yl)-3-azabicyclo[3.1.1]heptan-6-yl)acetamide]	
1.2	CN1CCC(C(=O)N[C@@H]2[C@@H]3CC[C@H]2CN(c2nnc(-c4cnc(-c5ccc6cc(C#N)cnn56)cc4NC4(C)COC4)s2)C3)CC1 [Example 119, N-((1R,5S,8s)-3-(5-(6-(3-cyanopyrrolo[1,2-b]pyridazin-7-yl)-4-((3-methyloxetan-3-yl)amino)pyridin-3-yl)-1,3,4-thiadiazol-2-yl)-3-azabicyclo[3.2.1]octan-8-yl)-1-methylpiperidine-4-carboxamide]	
3.5	CC(=O)N[C@@H]1[C@@H]2CC[C@H]1CN(c1nnc(-c3cnc(-c4ccc5cc(C#N)cnn45)cc3NC(C)C)s1)C2 [Example 38]	
4.1	COC(=O)NC[C@H]1C[C@H](Nc2cc(-c3ccc4cc(C#N)cnn34)ncc2-c2nnc(N3C[C@H]4CC[C@@H](C3)[C@@H]4NC(C)=O)s2)C1 [Example 52]	
8.6	CC(=O)N[C@H]1CC[C@@H](c2nnc(-c3cnc(-c4ccc5cc(C#N)cnn45)cc3NC(C)C)s2)OC1 [Example 84, N-((3S,6S)-6-(5-(6-(3-cyanopyrro1o[1,2-b]pyridazin-7-yl)-4-(isopropylamino)pyridin-3-yl)-1,3,4-thiadiazol-2-yl)tetrahydro-2H-pyran-3-yl)acetamide]	
10.9	CC(C)Nc1cc(-c2ccc3cc(C#N)cnn23)ncc1-c1nnc([C@H]2CC[C@H](NC(=O)C(C)(C)O)CC2)s1 [Example 315, N-((1r,4r)-4-(5-(6-(3-cyanopyrrolo[1,2-b]pyridazin-7-yl)-4-(isopropylamino)pyridin-3-yl)-1,3,4-thiadiazol-2-yl)cyclohexyl)-2-hydroxy-2-methylpropanamide]	
3.1	COC(=O)NC[C@H]1C[C@H](Nc2cc(-c3ccc4cc(C#N)cnn34)ncc2-c2nnc([C@H]3CC[C@H](NC(=O)N4CCOCC4)CC3)s2)C1 [Example 143]	
7.4	CC(=O)N1CCN(c2nnc(-c3cnc(-c4ccc5cc(C#N)cnn45)cc3NC(C)C)s2)CC1 [Compound 232, 7-(5-(5-(4-acetylpiperazin-l-yl)-1,3,4-thiadiazol-2-yl)-4-(isopropylamino)pyridin-2-yl)pyrrolo[1,2-b]pyridazine-3-carbonitrile]	
6.9	COC(=O)NC[C@H]1C[C@H](Nc2cc(-c3ccc4cc(C#N)cnn34)ncc2-c2nnc([C@H]3CC[C@H](NC(=O)C4CC4)CC3)s2)C1 [Example 134, methyl (((1R,3r)-3-((2-(3-cyanopyrrolo[1,2-b]pyridazin-7-yl)-5-(5-((1r,4R)-4-(cyclopropanecarboxamido)cyclohexyl)-1,3,4-thiadiazol-2-yl)pyridin-4-yl)amino)cyclobutyl)methyl)carbamate]	
6.4	CC(=O)N[C@@H]1[C@@H]2C[C@H]1CN(c1nnc(-c3cnc(-c4ccc5cc(C#N)cnn45)cc3NC3COC3)s1)C2 [Example 179, N-((1R,5S,6s)-3-(5-(6-(3-cyanopyrrolo[1,2-b]pyridazin-7-yl)-4-(oxetan-3-ylamino)pyridin-3-yl)-1,3,4-thiadiazol-2-yl)-3-azabicyclo[3.1.1]heptan-6-yl)acetamide]	
